# ChEMBL document CHEMBL3808308, “Synergistic potentiation of (-)-lomaiviticin A cytotoxicity by the ATR inhibitor VE-821” (Bioorg Med Chem Lett, 2016)
# The source made the active and inactive calls. The calls are words filed in the database; no cut-off is given here.
# How the values were obtained:
# [1] = system: K562; assay: Cytotoxicity against human K562 cells assessed as decrease in cell viability up to 2.5 to 10 uM after 24 to 48 hrs by cell titer-glo luminescence assay; type: cell-based
# [2] = system: K562; assay: Potentiation of 0.025 nM (-)-lomaiviticin A-induced cytotoxicity against human K562 cells assessed as fraction ratio affected at 5 uM after 24 hrs by cell titer-glo luminescence assay; type: functional
# [3] = system: K562; assay: Potentiation of 0.05 nM (-)-lomaiviticin A-induced cytotoxicity against human K562 cells assessed as fraction ratio affected at 5 uM after 24 hrs by cell titer-glo luminescence assay; type: functional
# [4] = system: K562; assay: Potentiation of 0.25 nM (-)-lomaiviticin A-induced cytotoxicity against human K562 cells assessed as fraction ratio affected at 5 uM after 24 hrs by cell titer-glo luminescence assay; type: functional
# [5] = system: K562; assay: Potentiation of 0.5 nM (-)-lomaiviticin A-induced cytotoxicity against human K562 cells assessed as fraction ratio affected at 5 uM after 24 hrs by cell titer-glo luminescence assay; type: functional
# [6] = system: K562; assay: Potentiation of 2.5 nM (-)-lomaiviticin A-induced cytotoxicity against human K562 cells assessed as fraction ratio affected at 5 uM after 24 hrs by cell titer-glo luminescence assay; type: functional
# [7] = system: K562; assay: Potentiation of 5 nM (-)-lomaiviticin A-induced cytotoxicity against human K562 cells assessed as fraction ratio affected at 5 uM after 24 hrs by cell titer-glo luminescence assay; type: functional
# [8] = system: K562; assay: Potentiation of 0.025 nM (-)-lomaiviticin A-induced cytotoxicity against human K562 cells assessed as combination index at 5 uM after 24 hrs by cell titer-glo luminescence assay; type: functional
# [9] = system: K562; assay: Potentiation of 0.05 nM (-)-lomaiviticin A-induced cytotoxicity against human K562 cells assessed as combination index at 5 uM after 24 hrs by cell titer-glo luminescence assay; type: functional
# [10] = system: K562; assay: Potentiation of 0.25 nM (-)-lomaiviticin A-induced cytotoxicity against human K562 cells assessed as combination index at 5 uM after 24 hrs by cell titer-glo luminescence assay; type: functional
# [11] = system: K562; assay: Potentiation of 0.5 nM (-)-lomaiviticin A-induced cytotoxicity against human K562 cells assessed as combination index at 5 uM after 24 hrs by cell titer-glo luminescence assay; type: functional
# [12] = system: K562; assay: Potentiation of 2.5 nM (-)-lomaiviticin A-induced cytotoxicity against human K562 cells assessed as combination index at 5 uM after 24 hrs by cell titer-glo luminescence assay; type: functional
# [13] = system: K562; assay: Potentiation of 5 nM (-)-lomaiviticin A-induced cytotoxicity against human K562 cells assessed as combination index at 5 uM after 24 hrs by cell titer-glo luminescence assay; type: functional
# [14] = system: K562; assay: Potentiation of 0.025 nM (-)-lomaiviticin A-induced cytotoxicity against human K562 cells assessed as fraction ratio affected at 5 uM after 48 hrs by cell titer-glo luminescence assay; type: functional
# [15] = system: K562; assay: Potentiation of 0.05 nM (-)-lomaiviticin A-induced cytotoxicity against human K562 cells assessed as fraction ratio affected at 5 uM after 48 hrs by cell titer-glo luminescence assay; type: functional
# [16] = system: K562; assay: Potentiation of 0.25 nM (-)-lomaiviticin A-induced cytotoxicity against human K562 cells assessed as fraction ratio affected at 5 uM after 48 hrs by cell titer-glo luminescence assay; type: functional
# [17] = system: K562; assay: Potentiation of 0.5 nM (-)-lomaiviticin A-induced cytotoxicity against human K562 cells assessed as fraction ratio affected at 5 uM after 48 hrs by cell titer-glo luminescence assay; type: functional
# [18] = system: K562; assay: Potentiation of 2.5 nM (-)-lomaiviticin A-induced cytotoxicity against human K562 cells assessed as fraction ratio affected at 5 uM after 48 hrs by cell titer-glo luminescence assay; type: functional
# [19] = system: K562; assay: Potentiation of 5 nM (-)-lomaiviticin A-induced cytotoxicity against human K562 cells assessed as fraction ratio affected at 5 uM after 48 hrs by cell titer-glo luminescence assay; type: functional
# [20] = system: K562; assay: Potentiation of 0.025 nM (-)-lomaiviticin A-induced cytotoxicity against human K562 cells assessed as combination index at 5 uM after 48 hrs by cell titer-glo luminescence assay; type: functional
# [21] = system: K562; assay: Potentiation of 0.05 nM (-)-lomaiviticin A-induced cytotoxicity against human K562 cells assessed as combination index at 5 uM after 48 hrs by cell titer-glo luminescence assay; type: functional
# [22] = system: K562; assay: Potentiation of 0.25 nM (-)-lomaiviticin A-induced cytotoxicity against human K562 cells assessed as combination index at 5 uM after 48 hrs by cell titer-glo luminescence assay; type: functional
# [23] = system: K562; assay: Potentiation of 0.5 nM (-)-lomaiviticin A-induced cytotoxicity against human K562 cells assessed as combination index at 5 uM after 48 hrs by cell titer-glo luminescence assay; type: functional
# [24] = system: K562; assay: Potentiation of 2.5 nM (-)-lomaiviticin A-induced cytotoxicity against human K562 cells assessed as combination index at 5 uM after 48 hrs by cell titer-glo luminescence assay; type: functional
# [25] = system: K562; assay: Potentiation of 5 nM (-)-lomaiviticin A-induced cytotoxicity against human K562 cells assessed as combination index at 5 uM after 48 hrs by cell titer-glo luminescence assay; type: functional
# [26] = system: K562; assay: Cytotoxicity against human K562 cells assessed as effect on cell viability at 0.05 to 0.5 nM after 24 to 48 hrs by cell titer-glo luminescence assay; type: functional
# [27] = system: K562; assay: Cytotoxicity against human K562 cells assessed as decrease in cell viability at 1 nM after 48 hrs by cell titer-glo luminescence assay; type: functional
# [28] = system: K562; assay: Induction of DNA double-strand breaks in human K562 cells at 50 to 500 pM after 24 hrs by neutral comet assay; type: functional, cell-based
# [29] = system: K562; assay: Induction of apoptosis in human K562 cells assessed as gammaH2AX/53BP1 levels up to 250 pM after 48 hrs by DAPI staining based immunofluorescence microscopy; type: functional, cell-based
# [30] = Cytotoxicity against BRCA2-deficient chinese hamster VC8 cells assessed as decrease in cell viability by clonogenic survival assay; type: functional; settings: Cricetulus griseus, V-C8; read-out: LC50 (the source's name)
# [31] = system: U-251; assay: Cytotoxicity against PTEN-deficient human U251 cells assessed as decrease in cell viability by clonogenic survival assay; type: functional; settings: read-out: LC50 (the source's name)
# [32] = Selectivity ratio of LC50 for chinese hamster VC8 cells expressing BRCA2 to LC50 for BRCA2-deficient chinese hamster VC8 cells; type: functional, Cricetulus griseus
# [33] = system: U-251; assay: Selectivity ratio of LC50 for human U251 cells expressing PTEN to LC50 for PTEN-deficient human U251 cells; type: functional
# [34] = system: K562; assay: Potentiation of 250 pM (-)-lomaiviticin A-induced cytotoxicity against human K562 cells assessed as decrease in cell viability at 10 uM after 48 hrs by cell titer-glo luminescence assay; type: functional, cell-based
structure (smiles),measurement,setting,value
O=c1cc(N2CCOCC2)oc2c(-c3cccc4c3sc3ccccc34)cccc12,Activity,[1],Non-toxic
same,Ratio,[2],0.1436
same,Ratio,[3],0.1367
same,Ratio,[4],0.1927
same,Ratio,[5],0.2584
same,Ratio,[6],0.7163
same,Ratio,[7],0.9647
same,CI,[8],0.0855
same,CI,[9],0.1033
same,CI,[10],0.2068
same,CI,[11],0.3196
same,CI,[12],0.8596
same,CI,[13],0.9596
same,Ratio,[14],0.4881
same,Ratio,[15],0.5477
same,Ratio,[16],0.5832
same,Ratio,[17],0.6811
same,Ratio,[18],0.9451
same,Ratio,[19],0.9912
same,CI,[20],0.4328
same,CI,[21],0.4461
same,CI,[22],0.8337
same,CI,[23],1.056
same,CI,[24],1.147
same,CI,[25],0.6686
CC[C@@]1(O[C@H]2C[C@H](OC)[C@@H](O)[C@H](C)O2)[C@H](O[C@H]2C[C@@H](O)[C@H](N(C)C)[C@@H](C)O2)c2c(c3c(=O)c4c(O)ccc(O)c4c(=O)c=3c2=[N+]=[N-])C(=O)[C@@H]1[C@H]1C(=O)c2c(c(=[N+]=[N-])c3c(=O)c4c(O)ccc(O)c4c(=O)c2=3)[C@@H](O[C@H]2C[C@@H](O)[C@H](N(C)C)[C@@H](C)O2)[C@@]1(CC)O[C@H]1C[C@H](OC)[C@@H](O)[C@H](C)O1,Activity,[26],<5%
same,Activity,[27],34%
same,Activity,[28],inactive
same,Activity,[29],Active
same,CC50,[30],1.5 pM
same,CC50,[31],2 pM
same,RatioLC50,[32],>11.6
same,RatioLC50,[33],>11.6
same,Activity,[34],Active
